Reference: patent US20140179688A1, “PLOD-2 Modulators and Their Use in the Treatment of Skin” (AVON PRODUCTS, INC., priority 2012, published 2014)

Tested on: PLOD-2
Test: PLOD-2 expression by qRT-PCR versus other anti-aging actives (Example 5)
Format: cell-based, Human
Conditions: for Significant Increases in PLOD-2 Expression: 48 hours, fibroblasts, relative to vehicle; for induction of a significant level of PLOD-2 in skin cells: concentrations as in Table 5
Experimental: Normal Human Dermal Fibroblasts were Grown in DMEM (Mediatech; cat. #: 15-013-CV) containing 10% Fetal Bovine Serum (Perbio; cat. #: SH30070.03), Penicillin/Streptomycin (Mediatech, Cat #30-001-C1), L-Glutamine (Mediatech; cat. #: 25-005-CI) at 37° C. and 10% CO2. […] RNA was isolated using RNeasy RNA extraction kit (74106) from Qiagen. RNA concentrations were determined using NanoDrop Spectrophotometer ND 1000 ([…]).
RT reactions were conducted in a total volume of 20 μl using the High Capacity cDNA kit from AB (PN 4368814). The RT mixture was prepared to contain 2 μl 10× TaqMan RT buffer, 1.2 μl dNTP mix ([…]), 1.0 μl 10× Random Hexamer, 1 μl RNase Inhibitor, 1 μl MultiScribe Reverse Transcriptase ([…]), 100 ng of RNA, and RNase-free water to make up the final volume of 20 μl. The reaction was incubated at 25° C. for 10 min, 45° C. for 45 min, and then 95° C. for 5 min in a BIORAD MY CYCLER.
QPCR was carried out using Applied Biosystems Universal PCR Master Mix (PN 4369016). The mixture contained 10 μl of Taqman Universal PCR mix, 1 μl of primer and probe mix, 2 μl of RT product, and 7 μl of deionized water. All probes, Taqman assays were, were purchased from Applied Biosystems, Hs01118190 ml for PLOD-2, and human GAPDH (PN 4352934). The temperature profiles for qPCR were 50° C. for 2 min, and 95° C. for 10 min for 1 cycle, then at 95° C. for 15 sec, and 60° C. for 1 min for 40 cycles carried out in Stratagene Mx 3005P qPCR machine.
RNA isolated from cells were analyzed by qRT-PCR for expression levels of PLOD-2, using GAPDH as an internal control.

Compound | Significant Increases in PLOD-2 Expression (5 μM) | Significant Increases in PLOD-2 Expression (10 μM) | induction of a significant level of PLOD-2 in skin cells | other results
CC1=C(/C=C/C(C)=C/C=C/C(C)=C/CO)C(C)(C)CCC1 [Retinol] | No | No | did not induce a significant level of PLOD-2 | –
Hyaluronic Acid | – | – | did not induce a significant level of PLOD-2 | Significant Increases in PLOD-2 Expression (0.001%): No; Significant Increases in PLOD-2 Expression (0.005%): No
COC1=C(OC)C(=O)C(C/C=C(\C)CC/C=C(\C)CC/C=C(\C)CC/C=C(\C)CC/C=C(\C)CC/C=C(\C)CC/C=C(\C)CC/C=C(\C)CC/C=C(\C)CCC=C(C)C)=C(C)C1=O [Coenzyme Q10] | Yes (11%) | Yes (24%) | – | –
COc1ccc(Cc2nc(=O)c(CCC(=O)N3CCC(C)CC3)n[nH]2)cc1OC [ALB-H09784893] | – | – | significantly stimulate | –
Oc1ccc(C=Cc2cc(O)cc(O)c2)cc1 [Resveratrol] | No | No | did not induce a significant level of PLOD-2 | –
NC(=O)c1cccnc1 [Niacinamide] | – | – | did not induce a significant level of PLOD-2 | Significant Increases in PLOD-2 Expression (0.05%): No; Significant Increases in PLOD-2 Expression (0.10%): No
N-Acetyl-Tyrosinamide | – | – | significantly stimulate | –
O=C(O)CO [Glycolic Acid (AHA), Glycolic Acid] | – | – | did not induce a significant level of PLOD-2 | Significant Increases in PLOD-2 Expression (0.05%): No; Significant Increases in PLOD-2 Expression (0.10%): No
N#Cc1cccc(CN2CCNC(=O)CC2c2nccs2)c1 (centres unmarked) [ALB-H16063163] | – | – | significantly stimulate | –
